# Test results published in patent US20090117203A1, “KIT FOR CANCER TREATMENT AND PHARMACEUTICAL COMPOSITION FOR CANCER TREATMENT” (TMRC Co., Ltd., priority 2006, published 2009).
# Key:
# [1] = tested on: human liver cancer JHH-7; assay: Growth suppression of human liver cancer JHH-7 transplanted in nude mice; type: in vivo; conditions: for tumor volume: nude mice, TM-411 3 mg/kg oral daily 20 days, 5-FU 15.2 mg/kg oral 8th to 12th day; for effect on suppression of the growth of the tumor (in words): nude mice transplanted with JHH-7, same doses as Table 2
# Procedure: Fluorouracil (hereinafter, abbreviated to “5-FU”), which is a general name of that manufactured by Kyowa Hakko Kogyo Co., Ltd., was used as a chemotherapeutic agent.
# A tumor cell mass of human liver cancer JHH-7 was subcutaneously transplanted in dorsal portions of 6-week-old BALB/cAJcl-nu nude mice through a trocar. When the tumor volume reached 100 to 300 mm^3, the administration was started. TM-411 was orally administered once a day at a dose of 3 mg/kg for 20 days every day. 5-FU was orally administered at a dose of 15.2 mg/kg for 5 days every day from the 8th day to the 12th day.
# (§1) In a combination use group of TM-411 and 5-FU, each agent was administered at the same amount and the same administration route as those in the single administration. Tumor diameters were measured every day from the day of the start of the administration (the 1st day) to the next day of the completion of the administration (the 21st day), and effect on suppression of the growth was investigated. […] In a control group, physiological saline was administered at the same amount and the same administration route as those in the single administration of each agent.
# [2] = tested on: human liver cancer HePG2; assay: Growth suppression of human liver cancer HePG2 transplanted in nude mice; type: in vivo; conditions: for tumor volume: nude mice, TM-411 1 mg/kg oral daily 20 days, ADR 5 mg/kg i.v. once on first day; for effect on suppression of the growth of the tumor (in words): nude mice transplanted with HePG2, same doses as Table 3
# Procedure: Doxorubicin (hereinafter, abbreviated to “ADR”), which is a general name of that manufactured by Kyowa Hakko Kogyo Co., Ltd., was used as a chemotherapeutic agent.
# About 2×2×2 mm of a tumor cell mass of human liver cancer HePG2 was subcutaneously transplanted in dorsal portions of 6-week-old BALB/cAJcl-nu nude mice through a trocar. The administration was started on the day (defined as the first day) two days after the transplantation. TM-411 was orally administered at a dose of 1 mg/kg for 20 days every day from the first day. ADR was intravenously administered at a dose of 5 mg/kg once on the first day.
# as §1, with “ADR,” for “5-FU,”, “the” for “the next”, “20th” for “21st”
# [3] = tested on: human breast cancer Br-10; assay: Growth suppression of human breast cancer Br-10 transplanted in nude mice; type: in vivo, mouse; conditions: for tumor volume: nude mice, TM-411 1 mg/kg oral daily 28 days, DXL 7.5 mg/kg i.v. every 4 days three times; for effect on suppression of the growth of the tumor (in words): nude mice transplanted with Br-10, same doses as Table 1
# Description: Tamibarotene (hereinafter, simply abbreviated to “TM-411”) was used as a synthetic retinoid and was also used in the following other Examples. Taxotere (hereinafter, abbreviated to “DXL”), which is a general name of that manufactured by sanofi-aventis K.K., was used as a chemotherapeutic agent.
# A tumor cell mass of human breast cancer Br-10 was subcutaneously transplanted in dorsal portions of 6-week-old BALB/cAJcl-nu nude mice through a trocar. When the tumor volume reached 100 to 300 mm^3, the administration was started. TM-411 was orally administered once a day at a dose of 1 mg/kg for 28 days every day. DXL was intravenously administered from the first day at a dose of 7.5 mg/kg every 4 days three times.
# as §1, with “DXL,” for “5-FU,”, “29th” for “21st”
# [4] = tested on: human multiple myeloma U266; assay: Blood human IgE in NOG mice transplanted with human multiple myeloma U266; type: in vivo; conditions: for effect on blood concentration of human IgE (in words): NOG mice transplanted with U266; for Blood IgE level / Suppression ratio (blood IgE): NOG mice, 6 weeks after transplantation of U266
# Procedure: Prednisolone (hereinafter, abbreviated to “PSL”), which is a general name of that manufactured by Shionogi & Co., Ltd., was used as a chemotherapeutic agent.
# Seven-week-old NOD/SCID/γc^null (NOG) mice were divided into five groups of ten mice each (nine mice only in a control group), and […] cells of multiple myeloma cell line U266 were transplanted to each mouse via tail vein injection (the 0th day). The first group was used as a non-treated control group; in the second group, 1 mg/kg of TM-411 was orally administered for 28 days from the first day; in the third group, 3 mg/kg of TM-411 was orally administered for 28 days from the first day; in the fourth group, 7.5 mg/kg of PSL was orally administered for 8 days from the 21st day; and in the fifth group, 1 mg/kg of TM-411 was orally administered for 28 days from the first day and 7.5 mg/kg of PSL was orally administered in addition to the TM-411 for 8 days from the 21st day. Blood concentration of human IgE was measured 6 weeks after the transplantation of U266.
# [5] = PSL 7.5 mg/kg oral 8 days from 21st day
SMILES,tumor volume ([1]; 1st day),tumor volume ([1]; 4th day),tumor volume ([1]; 7th day),tumor volume ([1]; 11th day),tumor volume ([1]; 14th day),tumor volume ([1]; 18th day),tumor volume ([1]; 21st day),effect on suppression of the growth of the tumor (in words) [1],tumor volume ([2]; 3rd day),tumor volume ([2]; 7th day),tumor volume ([2]; 9th day),tumor volume ([2]; 11th day),tumor volume ([2]; 13th day),tumor volume ([2]; 15th day),tumor volume ([2]; 17th day),tumor volume ([2]; 20th day),effect on suppression of the growth of the tumor (in words) [2],tumor volume ([3]; 1st day),tumor volume ([3]; 5th day),tumor volume ([3]; 8th day),other results
"O=c1[nH]cc(F)c(=O)[nH]1 [5-FU, Fluorouracil]",126.6 mm^3,193.8 mm^3,291.6 mm^3,496.6 mm^3,697.5 mm^3,1071 mm^3,1408 mm^3,suppressed,–,–,–,–,–,–,–,–,–,–,–,–,–
"COc1cccc2c1C(=O)c1c(O)c3c(c(O)c1C2=O)C[C@@](O)(C(=O)CO)C[C@@H]3O[C@H]1C[C@H](N)[C@H](O)[C@H](C)O1 [ADR, Doxorubicin]",–,–,–,–,–,–,–,–,4.0 mm^3,18.8 mm^3,45.5 mm^3,180.0 mm^3,410.5 mm^3,650 mm^3,842 mm^3,1000 mm^3,suppressed the growth of the tumor,–,–,–,–
"CC(=O)O[C@@]12CO[C@@H]1C[C@H](O)[C@@]1(C)C(=O)[C@H](O)C3=C(C)[C@@H](OC(=O)[C@H](O)[C@@H](NC(=O)OC(C)(C)C)c4ccccc4)C[C@@](O)([C@@H](OC(=O)c4ccccc4)[C@H]21)C3(C)C [DXL, Taxotere]",–,–,–,–,–,–,–,–,–,–,–,–,–,–,–,–,–,138.9 mm^3,149.7 mm^3,132.6 mm^3,tumor volume ([3]; 12th day): 93.9 mm^3; tumor volume ([3]; 15th day): 76.0 mm^3; tumor volume ([3]; 19th day): 70.1 mm^3; tumor volume ([3]; 22nd day): 59.3 mm^3; tumor volume ([3]; 25th day): 58.2 mm^3; tumor volume ([3]; 29th day): 62.3 mm^3; effect on suppression of the growth of the tumor (in words) [3]: significantly suppressed
"C[C@]12C=CC(=O)C=C1CC[C@@H]1[C@@H]2[C@@H](O)C[C@@]2(C)[C@H]1CC[C@]2(O)C(=O)CO [PSL, Prednisolone]",–,–,–,–,–,–,–,–,–,–,–,–,–,–,–,–,–,–,–,–,"effect on blood concentration of human IgE (in words) [4]: decreased; Blood IgE level [4, 5]: 2204 ng/mL; Suppression ratio (blood IgE) [4, 5]: 18.2%"
"CC1(C)CCC(C)(C)c2cc(NC(=O)c3ccc(C(=O)O)cc3)ccc21 [TM-411, Tamibarotene]",136.1 mm^3,169.8 mm^3,201.8 mm^3,312.7 mm^3,452.7 mm^3,953.1 mm^3,1097.4 mm^3,suppressed,15.8 mm^3,33.6 mm^3,171.5 mm^3,196 mm^3,256 mm^3,520 mm^3,600 mm^3,726 mm^3,suppressed the growth of the tumor,136.4 mm^3,173.6 mm^3,234.1 mm^3,tumor volume ([3]; 12th day): 317.5 mm^3; tumor volume ([3]; 15th day): 359.5 mm^3; tumor volume ([3]; 19th day): 429.9 mm^3; tumor volume ([3]; 22nd day): 451.7 mm^3; tumor volume ([3]; 25th day): 455.7 mm^3; tumor volume ([3]; 29th day): 476.5 mm^3; effect on suppression of the growth of the tumor (in words) [3]: significantly suppressed; tumor volume ([2]; 5th day): 21.4 mm^3; effect on blood concentration of human IgE (in words) [4]: decreased; Blood IgE level ([4]; TM-411 1 mg/kg oral 28 days): 2519 ng/mL; Suppression ratio (blood IgE) ([4]; TM-411 1 mg/kg oral 28 days): 6.5%; Blood IgE level ([4]; TM-411 3 mg/kg oral 28 days): 1755 ng/mL; Suppression ratio (blood IgE) ([4]; TM-411 3 mg/kg oral 28 days): 34.0%
